Assay results taken from patent US10548864B2, “Enhanced ATRA-related compounds for the treatment of proliferative diseases, autoimmune diseases, and addiction conditions” (Beth Israel Deaconess Medical Center, Inc., priority 2015, dated 2020).
Values belong to the compound of their own block, whether it stands above or below them.

How the values were obtained:
[1] = in humans; cited from earlier work
[2] = system: human normal and breast cancer cell lines; assay: Cell growth of human normal and breast cancer cell lines; type: cell-based
Description: Absorbance was determined at 570 nm.
To test this possibility, we chose breast cancer as a model due to the substantial oncogenic role of Pin1 in vitro and in vivo.

[3] = system: Pin1; assay: Immunoblot of Pin1 and its substrate oncogenes and tumor suppressors in breast cells
Description: For immunoprecipitation and immunoblotting in the examples below, cells were polyethylenimine (PEI)- or lipofemamine-transfected with 8 μg of various plasmids, incubated in 10 cm dishes for 24 hours, and subsequently treatment with drugs as needed. […] After centrifugation at 13,000 g for 10 minutes, one tenth of the supernatant was stored as input, and the remainder was incubated 12 hours with M2 Flag agarose (Sigma). After brief centrifugation, immunoprecipitates were collected, extensively washed with the aforementioned lysis buffer twice, suspended in 2×SDS sample buffer (100 mM Tris-HCl, pH 6.8, 4% SDS, 5% β-mercaptoethanol, 20% glycerol, and 0.1% bromphenol blue), boiled for 10 minutes, and subjected to immunoblotting analysis. […] After electrophoresis, gel was transferred to nitrocellulose membranes using a semidry transfer cell. The transblotted membrane was washed twice with Tris-buffered saline containing 0.1% Tween 20 (TBST). After blocking with TBST containing 5% bovine serum albumin (BSA) for 1 hour, the membrane was incubated with the appropriate primary antibody (diluted 1:1000) in 2% BSA-containing TBST at 4° C. overnight. After incubation with the primary antibody, the membrane was washed three times with TBST for a total of 30 minutes followed by incubation with horseradish peroxidase (HRP)-conjugated goat anti-rabbit or anti-mouse IgG (diluted 1:2500) for 1 hour at room temperature. After three extensive washes with TBST for a total of 30 minutes, the immunoblots were visualized by enhanced chemiluminescence.

[4] = system: RAR; assay: Transactivation of RAR downstream target genes
[5] = system: MRL/lpr lupus prone mice; assay: MRL/lpr lupus prone mice
[6] = system: Pin1 and PML-RARα; assay: Pin1 and PML-RARα immunostaining in bone marrow of APL patients treated with ATRA
Description: Tissue samples were washed with PBS and fixed with 4% paraformaldehyde at room temperature for 20 minutes, followed by permeabilization and blocking with PBS containing 0.1% Triton X-100 and 5% FBS for 1 hour. After another wash with PBS, immunostaining was performed by incubating the cells with mouse anti-Pin1 (1:1000), or rabbit anti-PML (Santa Cruz; 1:100) primary antibodies at 4° C. overnight. Primary antibodies were diluted in PBS containing 0.1% Triton X-100, 0.2% BSA, 0.5 mM PMSF, and 1 mM dithiothreitol. […] Samples were nuclear counterstained with 4,6-diamidino-2-phenylindole (DAPI), mounted and visualized with a LSM510 confocal imaging system.
Bone marrow aspirates were obtained with informed consent from the iliac crest of patients in whom the diagnosis of acute promyelocytic leukemia was suspected based on the morphological evaluation of peripheral blood smear. […] Samples tested positive for the PML/RARα rearrangement by RT-PCR.

[7] = system: cyclin D1 promoter; assay: Cyclin D1 promoter luciferase activity upon Pin1 overexpression; details: 72 hours
[8] = target: T1, Pin1 (Mus musculus, UniProt Q9QUR7); assay: Pin1 level, mRNA and stability in MEFs (immunoblot, RT-PCR, CHX chase); type: cell-based
T1 construct: endogenous in cells; host or cells: mouse embryonic fibroblasts (MEFs)
Description: RNA from cells was extracted with the Total RNA isolation mini kit (Agilent). cDNA was prepared with transcriptor first strand cDNA synthesis kit (Roche) and PCR was carried out with iQ SYBR Green Supermix (Bio-Rad). Samples were run on the QIAGEN Rotor-Gene Q real-time cycler. GAPDH was used as an internal control. Analysis was performed with the delta-delta ct method. The following primers were used: […]

[9] = system: MDA-MB-468 cells; assay: MDA-MB-468 xenograft in nude mice
Description: Tumor sizes were measured weekly and mice were sacrificed after 7 weeks to collect tumor tissues (37D). […] Pin1 and cyclin D1 in xenograft tumors were assayed by IB (37F).
(§3) In pilot experiments, MDA-MB-231 cells were subcutaneously injected into female nude mice in the flank.

[10] = system: mouse embryonic fibroblasts (MEFs); assay: Cell growth assay in Pin1 WT and Pin1 KO MEFs
Description: (§4) For cell growth assays described below, cells were seeded in a density of 3000 cells per well in 96-well flat-bottomed plates, and incubated for 24 h in 10% FBS-supplemented DMEM culture medium. […] Control cells received DMSO at a concentration equal to that in drug-treated cells. After 72 hours, the number of cells was counted after trypsin digestion, or medium containing 0.5 mg/ml 3-(4,5-dimethylthiazol-2-yl)-2,5-diphenyl-2H-tetrazolium bromide was added to each well for 2 hours of incubation at 37° C., followed by removal of the media before the addition of 200 μl DMSO. Absorbance was determined at 570 nm.

[11] = system: APL cells from hCG-PML-RARα transgenic mice; details: APL mouse model
[12] = system: human APL NB4 cells; assay: NB4 cell growth
Description: as §4

[13] = system: human APL NB4 cells; assay: Immunoblot of Pin1 and PML-RARα in APL NB4 cells; type: cell-based; details: for PML-RARα level: APL cells; for PML-RARα level / Pin1 degradation: 72 hours
[14] = system: MDA-MB-231 cells; assay: MDA-MB-231 xenograft in nude mice
Description: Tumor sizes were measured weekly and mice were sacrificed after 7 weeks to collect tumor tissues (37A). […] Pin1 and cyclin D1 in xenograft tumors were assayed by IB (37C).
Tumor sizes were measured weekly and mice were sacrificed after 7 weeks to collect tumor tissues (37G).
Tumor sizes were recorded weekly by a caliber for up to 8 weeks and tumor volumes were calculated using the formula L×W^2×0.52, where L and W represent length and width, respectively.
as §3

[15] = system: NIH 3T3 cells; assay: Centrosome amplification induced by Pin1 overexpression; details: 72 hours
[16] = system: SKBR3 cells; assay: Foci formation assay upon Pin1 overexpression
[17] = system: GST-cyclophilin; assay: Chymotrypsin coupled PPIase activity assay; type: biochemical
Description: Compounds were preincubated with enzymes for 0.5 to 2 hours at 4° C. Ki values obtained from PPIase assays are derived from the Cheng-Prusoff equation: [formula] where Km is the Michaelis constant for the used substrate, S is the initial concentration of the substrate in the assay, and the IC50 value is of the inhibitor. Cell Growth Assays

[18] = target: T2, GST-Pin1 (Homo sapiens, UniProt Q13526); assay: Chymotrypsin coupled PPIase activity assay; type: biochemical
Description: (§1) Compounds were preincubated with enzymes for 0.5 to 2 hours at 4° C. Ki values obtained from PPIase assays are derived from the Cheng-Prusoff equation:
(§2) [formula] where Km is the Michaelis constant for the used substrate, S is the initial concentration of the substrate in the assay, and the IC50 value is of the inhibitor. Cell Growth Assays

[19] = target: GST-FKBP12 (Homo sapiens, UniProt P62942); assay: Chymotrypsin coupled PPIase activity assay; type: biochemical
Description: as §1, §2

[20] = target: T2, GST-Pin1; assay: Fluorescence polarization pTide competition assay (FP-HTS / FP assay)
Description: Measurements of fluorescence polarization and fluorescence absorbance were made in black 384-well plates (Corning) using a Synergy II plate reader. […] The assay can tolerate up to 10% DMSO.
Molecules that compete with pTide for binding to the active site, e.g., Pin1 substrates, were detected under equilibrium conditions. A Z score was used to identify and rank those molecules that were most competitive with pTide (e.g., that have higher binding affinity). A Z score is defined as Z=(x−μ)/σ, where x is a raw score, μ is the mean of the population, and σ is the standard deviation of the population. Molecules with the most negative Z scores represent those with the highest Pin1 binding affinity. The Z′ value for this assay was around 0.70 and was consistent for day-to-day performance, with a coefficient of variation in the range of 4-5%.

[21] = system: NB4 cells; assay: APL cell differentiation (Giemsa staining, FACS with CD14 and CD11b); type: cell-based, human; details: 72 hours
Excerpt: The latter result could be attributed to the stabilization of RAR protein upon Pin1 KD.

[22] = three sensitive cancer cell lines, 72 hours
[23] = after 10 days of ATRA treatment
[24] = 5 or 10 mg 21 day ATRA-releasing pellets, 1 week after inoculation

T2 sequence (Q13526 whole entry): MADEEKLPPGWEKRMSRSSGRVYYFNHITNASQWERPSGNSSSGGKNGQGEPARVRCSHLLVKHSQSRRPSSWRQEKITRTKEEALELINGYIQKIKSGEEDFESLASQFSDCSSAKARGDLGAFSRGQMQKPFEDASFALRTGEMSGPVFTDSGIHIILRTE
T1 sequence (Q9QUR7 whole entry): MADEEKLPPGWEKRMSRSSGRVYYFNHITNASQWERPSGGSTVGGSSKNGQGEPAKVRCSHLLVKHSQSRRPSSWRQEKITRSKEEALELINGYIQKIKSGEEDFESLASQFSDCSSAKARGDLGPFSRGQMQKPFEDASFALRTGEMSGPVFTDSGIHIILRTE
GST-FKBP12, sequence (P62942 whole entry): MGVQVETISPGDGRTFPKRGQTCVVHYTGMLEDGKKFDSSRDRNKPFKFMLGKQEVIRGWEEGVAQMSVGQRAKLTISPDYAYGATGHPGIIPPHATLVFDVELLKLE

Activation of the cyclin D1 promoter by Pin1 overexpression [7]: dose-dependently and fully inhibited
Pin1 protein level ([8]; MEFs, immunoblot): dose-dependently down-regulated Pin1
Pin1 mRNA levels ([8]; MEFs, quantitative RT-PCR): no obvious effects
Inhibition of cyclophilin [17]: did not inhibit
Inhibition of the PPIase activity of Pin1 [18]: fully inhibited
Inhibition of FKBP12 [19]: did not inhibit
Compound: CC1=C(/C=C/C(C)=C/C=C/C(C)=C/C(=O)O)C(C)(C)CCC1 [ATRA, all-trans retinoic acid]
Half-life [1]: ~45 min
Cell growth, malignant breast cancer cells ([2]; 72 hours): differential susceptibility
Cell growth, non-transformed MCF10A and HMLE cells ([2]; 72 hours): highly resistant
Effects on Pin1 and substrate proteins in normal MCF10A cells ([3]; MCF10A cells): no appreciable effects
Protein levels of Pin1 and its substrate oncogenes (cyclin D1, HER2, ERa, Akt, NFκB/p65, c-Jun, PKM2) [3, 22]: dose-dependent protein reduction
Protein levels of Pin1 substrate tumor suppressors (Smad2/3, SMRT) [3, 22]: protein induction
Transactivation of RAR downstream target genes (RARβ, TGM2) [4]: effectively and significantly induces transactivation
Visual lupus-related phenotypes (fur loss, skin inflammation, lymphoid hyperplasia) ([5]; 5 mg ATRA for 8 weeks from 8 weeks of age): drastically suppressed visual lupus-related phenotypes in all six treated mice
Size of spleen and lymph node ([5]; 14 week-old ATRA-treated mouse): normal size
Glomerular deposition of IgG, C3, and CD68 ([5]; mouse, in vivo): potently inhibited
Hyperkeratinosis ([5]; mouse, in vivo): potently inhibited
PML-RARα level in bone marrow of APL patients ([6]; after 3 days of ATRA treatment): ~40%
Pin1 level in bone marrow of APL patients ([6]; after 3 days of ATRA treatment): ~40%
PML-RARα level in bone marrow of APL patients [6, 23]: < 10%
Pin1 level in bone marrow of APL patients [6, 23]: < 10%
Degradation of PML-RARα and Pin1 ([8]; RARα, β, and γ triple KO MEFs): induced degradation of PML-RARα and Pin1 similar to that for WT controls
Tumor growth [9, 24]: potently and dose-dependently inhibited tumor growth
Pin1 and cyclin D1 in tumors ([9]; ATRA-releasing pellets): reduced both Pin1 and its substrate cyclin D1
Inhibition of growth of Pin1 WT MEFs ([10]; Pin1 WT MEFs): relatively high concentrations of ATRA were required
Inhibition of growth of Pin1 KO MEFs ([10]; Pin1 knockout (KO) cells): much more resistant
PML-RARα in the bone marrow [11]: effectively reduced PML-RARα in the bone marrow
Pin1 levels in the bone marrow [11]: reduced Pin1 levels in the bone marrow
Spleen weight [11]: spleen weights nearly at basal levels
NB4 cell proliferation [12]: suppressed
PML-RARα level [13]: dose-dependently reduced PML-RARα
Pin1 and PML-RARα expression ([13]; NB4 cells, 10 μM for 96 hours): reduced Pin1 and PML-RARα expression
Tumor growth [14, 24]: potently and dose-dependently inhibited tumor growth
Endogenous and exogenous Pin1 and cyclin D1 in tumors of Pin1-expressing MDA-MB-231 cells ([14]; ATRA implants): dose-dependently reduced both endogenous and exogenous Pin1, and cyclin D1
Tumor growth, MDA-MB-231 cells stably expressing Pin1 ([14]; ATRA implants): effectively inhibited by ATRA in a dose-dependent manner
Pin1 and cyclin D1 in tumors ([14]; ATRA-releasing pellets): reduced both Pin1 and its substrate cyclin D1
Antitumor activity ([14]; intraperitoneally 3 times a week for 8 weeks (12.5 mg/kg)): only modest antitumor activity
Centrosome amplification induced by Pin1 overexpression [15]: dose-dependently and fully inhibited
Foci formation enhanced by Pin1 overexpression [16]: dose-dependently and fully inhibited

Z score in FP-HTS ([20]; ~8200 compounds screened): lowest Z score
Inhibition of cyclophilin [17]: did not inhibit
Inhibition of the PPIase activity of Pin1 [18]: fully inhibited
Inhibition of FKBP12 [19]: did not inhibit
Compound: CC1=C(/C=C/C(C)=C/C=C/C(C)=C\C(=O)O)C(C)(C)CCC1 [Compound 13cRA, 13-cis-retinoic acid]

Compound: O=C(O[C@@H]1Cc2c(O)cc(O)cc2O[C@@H]1c1cc(O)c(O)c(O)c1)c1cc(O)c(O)c(O)c1 [EGCG]
APL cell differentiation [21]: neither Pin1 inhibitors nor Pin1 KD induced APL cell differentiation
Condition of treated mice (toxic effects) [11]: rather sick
PML-RARα in the bone marrow [11]: effectively reduced PML-RARα in the bone marrow
Spleen weight [11]: spleen weights nearly at basal levels
PML-RARα level [13]: dose-dependently reduced PML-RARα
Pin1 degradation ([13]; NB4 cells): inhibited Pin1 without degrading it

Compound: CCOC(=O)CN1C(=O)c2ccc3c4c(ccc(c24)C1=O)C(=O)N(CC(=O)OCC)C3=O [PiB]
APL cell differentiation [21]: neither Pin1 inhibitors nor Pin1 KD induced APL cell differentiation
PML-RARα level [13]: dose-dependently reduced PML-RARα
Pin1 degradation ([13]; NB4 cells): inhibited Pin1 without degrading it

Pin1 binding in the FP assay [20]: minimal Pin1 binding
Compound: CCCCCCCOc1cc2c(cc1/C(C)=C/c1ccc(C(=O)O)cc1)C(C)(C)CCS2(=O)=O [Ro-415253]
Transactivation of RAR downstream target genes (RARβ, TGM2) [4]: suppresses it

Compound: COc1cc(C)c(/C=C/C(C)=C/C=C/C(C)=C/C(=O)O)c(C)c1C [acitretin]
Pin1 binding in the FP assay [20]: moderate binding

Pin1 binding in the FP assay [20]: marginal binding
Compound: C=C(c1ccc(C(=O)O)cc1)c1cc2c(cc1C)C(C)(C)CCC2(C)C [bexarotene]

Compound: O=C(O)Cc1c[nH]c2ccccc12 [indo-3-acetic acid]
Pin1 binding in the FP assay [20]: neither pravastatin nor indo-3-acetic acid demonstrated any binding

Compound: Clc1cccc(C(c2ccc3[nH]cnc3c2)n2ccnc2)c1 (centres unmarked) [liarazole]
Inhibition of cell proliferation in combination with ATRA ([2]; AU565 or SKBR3 cells, cytochrome P450 inhibitor plus ATRA): generally additive effects

Pin1 binding in the FP assay [20]: totally inactive
Compound: CC1=C(/C=C/C(C)=C/C=C/C(C)=C/C=O)C(C)(C)CCC1 [retinal]

Pin1 binding in the FP assay [20]: totally inactive
Compound: CC1=C(/C=C/C(C)=C/C=C/C(C)=C/CO)C(C)(C)CCC1 [retinol]

Pin1 binding in the FP assay [20]: totally inactive
Compound: CC(=O)OC/C=C(C)/C=C/C=C(C)/C=C/C1=C(C)CCCC1(C)C [retinyl acetate]

Pin1 binding in the FP assay [20]: moderate binding
Compound: CC1(C)CCC(C)(C)c2cc(NC(=O)c3ccc(C(=O)O)cc3)ccc21 [tamibarotene]
